Results: patent US20250108019A1, “USE OF LACTIC ACID IN PRODUCT FOR REGULATING AND PROMOTING TISSUE GROWTH” (CHANGCHUN SINOBIOMATERIALS CO., LTD., priority 2022, published 2025)

Columns and labels:
[1] = tested on: muscle—rectus femoris; experiment: Muscle tissue diameter after local injection in mice (Sirius red, 100× optical microscope); assay type: in vivo; details: for Muscle tissue measured value, mean: 0.1 ml injection daily, experimental side
Description: (§1) Experimental animals: Male experimental mice weighing 23±4 g were selected and divided into several groups, with 10 mice in each group. Experimental site: Different tissue sites of mice were selected for the test, specifically muscle—rectus femoris, tendon—Achilles tendon, cartilage—ear cartilage tissue. Experimental group: ? 25 mmol/L aqueous lactic acid solution • ? 50 mmol/L aqueous lactic acid solution • ? 75 mmol/L aqueous lactic acid solution and • ? 0.9% sodium chloride injection Experimental procedure: The right side of the experimental mouse was the experimental side (injected with lactic acid solutions at different concentrations), and the left side was the control side (injected with 0.9% sodium chloride injection). The experiment started with a single injection of 0.1 ml of the corresponding experimental solution at the experimental side every day from 1 to 7 days. […] The experimental and control sides of each mouse were selected for fixation and pathological histological examination. • 1) The tissue to be observed was cut and fixed, and then stained with Sirius red to observe the effects of the injection solution on the tissues at various sites. • 2) The experimental side and the control side were randomly selected for sectioning, the diameter of each tissue was measured under a 100× optical microscope, and the average value of the experimental side and the control side was calculated using the following formula: [formula] The diameters on both sides were compared, and the effects of the lactic acid solution on each tissue site were analyzed using the SSPS 21 calculation results.

[2] = tested on: tendon—Achilles tendon; experiment: Tendon diameter after local injection in mice (Sirius red, 100× optical microscope); assay type: in vivo; details: for Tendon measured value, mean: 0.1 ml injection daily, experimental side
Description: as §1

[3] = tested on: cartilage—ear cartilage tissue; experiment: Ear cartilage diameter after local injection in mice (Sirius red, 100× optical microscope); assay type: in vivo; details: 50 mmol/L; for Ear cartilage tissue measured value, mean: 0.1 ml injection daily, experimental side
Description: as §1

[4] = tested on: sciatic nerve; experiment: Sciatic function index (SFI) after sciatic nerve clamp injury; assay type: in vivo, mice; details: 0.1 ml of 50 mmol/L intraperitoneal
Description: Experimental animals: Male experimental mice weighing 30˜35 g were selected and divided into 3 groups, with 26 mice in each group. Experimental site: The sciatic nerve of mice was selected. Experimental groups: ? model group (injury caused by sciatic nerve clamp injury); ? treatment group (after injuried by sciatic nerve clamp, 0.1 ml of 50 mmol/L aqueous lactic acid solution was given by intraperitoneal injection each time); and ? sham group (only the sciatic nerve was freed). Experimental procedure: The treatment group was given medication for 14 consecutive days, and the model group and sham group were given an equal amount of 0.9% sodium chloride injection. • (1) The functional recovery of the sciatic nerve of mice after injury was tracked and evaluated by using the sciatic function index (SFI) at 7 and 14 days after surgery. […] The footprints of the left injured side (E) and the right normal side (N) of the experimental mice were measured. The footprint length (PL), the distance from the first toe to the fifth toe (TS), and the distance from the second toe to the fourth toe (IT) were recorded and put into the formula for calculation. […] The formula is as follows: SFI=109.5(ETS−NTS)/NTS−38.3(EPL−NPL)/NPL+13.3(EIT−NIT)/NIT−8.8 • (2) The degree of toe spread on the injured side was recorded at 3, 7, and 14 days after surgery. […]

[5] = tested on: sciatic nerve; experiment: Toe spread score after sciatic nerve clamp injury; assay type: in vivo, mice; details: 0.1 ml of 50 mmol/L intraperitoneal
Description: Experimental animals: Male experimental mice weighing 30˜35 g were selected and divided into 3 groups, with 26 mice in each group. Experimental site: The sciatic nerve of mice was selected. Experimental groups: ? model group (injury caused by sciatic nerve clamp injury); ? treatment group (after injuried by sciatic nerve clamp, 0.1 ml of 50 mmol/L aqueous lactic acid solution was given by intraperitoneal injection each time); and ? sham group (only the sciatic nerve was freed). Experimental procedure: The treatment group was given medication for 14 consecutive days, and the model group and sham group were given an equal amount of 0.9% sodium chloride injection. […] The evaluation grades are classified as scores 0˜3, with no spread being score 0 and full spread being score 3.

For `CC(O)C(=O)O` (centres unmarked) [lactic acid], the “Muscle tissue measured value, mean” value ([1]; 25 mmol/L, 3 days) was 64.13 μm, the “Muscle tissue measured value, mean” value ([1]; 25 mmol/L, 7 days) was 79.66 μm and the “Muscle tissue measured value, mean” value ([1]; 25 mmol/L, 14 days, * P<0.05 vs control side) was 123.8* μm. For the same molecule, the “Muscle tissue measured value, mean” value ([1]; 25 mmol/L, 21 days) was 112.1 μm, the “Muscle tissue on the experimental side, histological observation” value ([1]; 25 mmol/L, 14 days, FIG. 1) was “significantly thickened” and the “Muscle tissue measured value, mean” value ([1]; 50 mmol/L, 3 days) was 73.49 μm. For the same molecule, the “Muscle tissue measured value, mean” value ([1]; 50 mmol/L, 7 days, ** P<0.01 vs control side) was 69.14** μm, the “Muscle tissue measured value, mean” value ([1]; 50 mmol/L, 14 days, * P<0.05 vs control side) was 119.5* μm and the “Muscle tissue measured value, mean” value ([1]; 50 mmol/L, 21 days) was 111.9 μm. The “Muscle tissue on the experimental side, histological observation” value ([1]; 50 mmol/L, 7 days, FIG. 2) was “significantly thickened”, the “Tendon measured value, mean” value ([2]; 25 mmol/L, 3 days, * P<0.05 vs control) was 853.9* μm and the “Tendon measured value, mean” value ([2]; 25 mmol/L, 14 days) was 877.1 μm. For the same molecule, the “Tendon measured value, mean” value ([2]; 25 mmol/L, 21 days) was 438.3 μm, the “Achilles tendon on the experimental side, histological observation” value (“Achilles tendon … histological observation” below) ([2]; 25 mmol/L, 3 days after injection, FIG. 3) was “significantly thickened” and the “Tendon measured value, mean” value ([2]; 50 mmol/L, 3 days) was 484.6 μm. The “Tendon measured value, mean” value ([2]; 50 mmol/L, 7 days) was 547.8 μm, the “Tendon measured value, mean” value ([2]; 50 mmol/L, 14 days, * P<0.05 vs control) was 769.5* μm and the “Tendon measured value, mean” value ([2]; 50 mmol/L, 21 days) was 543.9 μm. The “Achilles tendon … histological observation” value ([2]; 50 mmol/L, Day 14, FIG. 4) was “significantly thickened”, the “Tendon measured value, mean” value ([2]; 75 mmol/L, 3 days, * P<0.05 vs control) was 970.9* μm and the “Tendon measured value, mean” value ([2]; 75 mmol/L, 7 days, * P<0.05 vs control) was 832.2* μm. For the same molecule, the “Tendon measured value, mean” value ([2]; 75 mmol/L, 14 days) was 578.2 μm, the “Tendon measured value, mean” value ([2]; 75 mmol/L, 21 days, * P<0.05 vs control) was 970.1* μm and the “Achilles tendon … histological observation” value ([2]; 75 mmol/L, Day 3, 7, and 21, FIG. 5) was “significantly thickened”. The “Ear cartilage tissue measured value, mean” value (from here on “Ear cartilage tissue”) ([3]; 3 days) was 158.8 μm, the “Ear cartilage tissue” value ([3]; 7 days) was 237.3 μm and the “Ear cartilage tissue” value ([3]; 14 days) was 170.3 μm. For the same molecule, the “Ear cartilage tissue” value ([3]; 21 days, * P<0.05 vs control side) was 253.5* μm, the “Cross-section of the ear cartilage on the experimental side, histological observation” value ([3]; Day 21, FIG. 6) was “significantly thickened” and the SFI score ([4]; 7 days after surgery, FIG. 7) was “significantly lower than those in the sham group”. The SFI score ([4]; 14 days after surgery, P<0.01, FIG. 7) was “significantly increased”, the “Toe spread score (0~3)” value ([5]; 3 days after surgery) was 0 ± 0.4 and the “Toe spread score (0~3)” value ([5]; 7 days after surgery) was 0.9 ± 0.6. The “Toe spread score (0~3)” value ([5]; 10 days after surgery) was 2 ± 0.3 and the “Toe spread score (0~3)” value ([5]; 14 days after surgery) was 2.5 ± 0.5.
